In patent US8242203B2, “Covalently attached nile blue derivatives for optical sensors” (priority 2005, dated 2012):
Read-outs that look alike come from different tables or passages of the source.

Key:
[1] = Leaching of chromoionophore from ISE membrane during conditioning and measurement; format: physicochemical; settings: conditioning in contact with buffer and measurements
Experimental: ISE Membrane Preparation and Measurements. ISE membranes were prepared by dissolving chromoionophore (10 mmol/kg), NaTFPB (2 mmol/kg), PVC and plasticizer (DOS or NPOE) to give a total cocktail mass of 140 mg in 1.5 mL of THF. The cocktail of the membrane with grafted chromoionophore contained 2 mmol/kg NaTFPB, 10 wt % MMA-DMA polymer with grafted indicators, PVC and plasticizer (DOS or NPOE). Cocktails were poured into glass rings (2.2 cm i.d.) affixed onto glass microscope slides.
The solvent was evaporated overnight to give a transparent membrane. The parent membranes were then conditioned for at least 12 hours in pH buffered solutions. For pH titrations, buffer solutions are 10 mM citric acid and 10 mM boric acid with the indicated concentrations of NaCl (either 10 mM or 0.1 mM) adjusted to pH 1.5 by 1 M standard HCl, or 10 mM phosphate buffer solution with NaCl as background. The solution was titrated with a 0.1 M standard NaOH solution and a pH electrode was used to monitor the sample pH. All experimental results given are the average of at least three electrodes, with calculated standard deviations.
The first polymerizable chromoionophore NB1 is a derivative of the highly basic oxazine-dye molecule Nile Blue attached to a acryloyloxybenzoyl group. The pH responses of NB1 based ion selective electrode (“ISE”) membranes were investigated first. […]

[2] = comparison value, cited from earlier work

leaching of the dye from the ISE membrane [1]	Structure (SMILES)	pKa ([2]; PVC-DOS)	pKa ([2]; PVC-NPOE)
found to leach from the membrane	C=CC(=O)Oc1ccc(C(=O)/N=c2/cc3oc4cc(N(CC)CC)ccc4nc-3c3ccccc23)cc1 [NB1]	–	–
–	CCCCCCCCCCCCCCCCCC(=O)N=c1cc2oc3cc(N(CC)CC)ccc3nc-2c2ccccc12 [ETH 5294, 9-(diethylamino)-5-octadecanoylimino-5H-benzo[a]phenoxazine]	11.4	14.8
